According to the supplement of paper PMC11451515:

Legend:
P12-Ichikawa [1] = test: AUC of viability dose-response curve (% viability x log10 dose units); higher = less sensitive; conditions: 48 h
In short: (§1)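 Area under the curve was integrated by trapezoidal rule from a log-logistic fit of normalised viability, with curves exceeding full viability scaled and quality-control failures removed. The fit had four parameters over log10 doses. Viability came from CellTiter-Glo One luminescence, normalised per plate to DMSO and cell-free wells, after leukemia cells adapted to each medium (500 or 1000 cells/well, 1536-well plates) were exposed to library compounds in DMSO for 48 h at 37°C. The 11 threefold doses ran from 47 μM to 0.79 nM.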

NOMO1 [2] = test: as above; conditions: 48 h
In short: as §1

SEM cells [3] = test: as above; conditions: 48 h
In short: as §1

P12-Ichikawa [4] = test: cell viability relative to DMSO control; higher = less cytotoxic; conditions: 48 h
In short: (§2)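 NOMO1 or SEM cells were plated at 500 cells/well and P12-Ichikawa cells at 1000 cells/well in 1536-well plates (5 μl), after each leukemia line had been adapted for at least four passages in each medium. Pin dosing delivered library compounds in DMSO at 11 threefold concentrations, 47 μM to 0.79 nM. CellTiter-Glo One luminescence was read after 48 h at 37°C. Viability is reported as a per-plate percentage of DMSO wells, with cell-free wells as background.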

NOMO1 [5] = test: as above; conditions: RPMI 5 mM glucose + 10% FBS, 48 h
In short: as §2

SEM cells [6] = test: as above; conditions: 48 h
In short: as §2

O=C1NC(=O)/C(=C/c2ccc3c(c2)OC(F)(F)O3)S1
AUC of viability dose-response curve
Conditions	NOMO1 [2]	P12-Ichikawa [1]	SEM cells [3]
HPLM + 10% dialyzed FBS	465	462	464
RPMI 5 mM glucose + 10% FBS	446	463	466
RPMI 5 mM glucose + 10% dialyzed FBS	457	440	466

COC1=CC(c2cc3ccccc3[nH]2)=N/C1=C/c1[nH]c(C)cc1C
AUC of viability dose-response curve
Conditions	NOMO1 [2]	P12-Ichikawa [1]	SEM cells [3]
HPLM + 10% dialyzed FBS	463	455	436
RPMI 5 mM glucose + 10% FBS	470	450	420
RPMI 5 mM glucose + 10% dialyzed FBS	448	452	391

CCc1cnn2c(NCc3ccc[n+]([O-])c3)cc(N3CCCC[C@H]3CCO)nc12
AUC of viability dose-response curve
Conditions	NOMO1 [2]	P12-Ichikawa [1]	SEM cells [3]
HPLM + 10% dialyzed FBS	224	236	206
RPMI 5 mM glucose + 10% FBS	231	230	193
RPMI 5 mM glucose + 10% dialyzed FBS	223	234	198

CC(=O)OCC(=O)[C@@]1(O)CC[C@H]2[C@@H]3CCC/4=C/C(=O)/C=C\[C@]4(C)[C@H]3[C@@H](O)C[C@]12C
cell viability [%]
Conditions	HPLM + 10% dialyzed FBS	RPMI 5 mM glucose + 10% FBS	RPMI 5 mM glucose + 10% dialyzed FBS
P12-Ichikawa [4], 0.000781 µM	120	–	117
P12-Ichikawa [4], 0.00234 µM	128	–	118
P12-Ichikawa [4], 0.00702 µM	123	–	121
P12-Ichikawa [4], 0.0211 µM	126	–	130
P12-Ichikawa [4], 0.0632 µM	102	–	92.5
P12-Ichikawa [4], 0.19 µM	85.3	–	77.4
P12-Ichikawa [4], 0.569 µM	95.7	–	100
P12-Ichikawa [4], 1.71 µM	72.1	–	50.8
P12-Ichikawa [4], 5.12 µM	66.4	–	43.8
P12-Ichikawa [4], 15.4 µM	118	–	109
P12-Ichikawa [4], 46.1 µM	109	–	102
SEM cells [6], 0.000781 µM	117	121	–
SEM cells [6], 0.00234 µM	106	124	–
SEM cells [6], 0.00702 µM	104	130	–
SEM cells [6], 0.0211 µM	112	124	–
SEM cells [6], 0.0632 µM	103	122	–
SEM cells [6], 0.19 µM	78.8	99.3	–
SEM cells [6], 0.569 µM	69.3	110	–
SEM cells [6], 1.71 µM	52.7	81.4	–
SEM cells [6], 5.12 µM	48.2	60.4	–
SEM cells [6], 15.4 µM	88	128	–
SEM cells [6], 46.1 µM	90.5	121	–

Conditions	AUC of viability dose-response curve	cell viability [%]
NOMO1 [2], HPLM + 10% dialyzed FBS	439	–
NOMO1 [2], RPMI 5 mM glucose + 10% FBS	450	–
NOMO1 [2], RPMI 5 mM glucose + 10% dialyzed FBS	472	–
NOMO1 [5], 0.000781 µM	–	131
NOMO1 [5], 0.00234 µM	–	119
NOMO1 [5], 0.00702 µM	–	121
NOMO1 [5], 0.0211 µM	–	119
NOMO1 [5], 0.0632 µM	–	114
NOMO1 [5], 0.19 µM	–	119
NOMO1 [5], 0.569 µM	–	120
NOMO1 [5], 1.71 µM	–	112
NOMO1 [5], 5.12 µM	–	119
NOMO1 [5], 15.4 µM	–	106
NOMO1 [5], 46.1 µM	–	115
SEM cells [3], HPLM + 10% dialyzed FBS	383	–
SEM cells [3], RPMI 5 mM glucose + 10% FBS	425	–
SEM cells [3], RPMI 5 mM glucose + 10% dialyzed FBS	428	–

CN1CCN(c2ncc(-c3cc(Cl)cc(Cl)c3Cl)c(N)n2)CC1
cell viability [%], SEM cells [6]
Conditions	RPMI 5 mM glucose + 10% FBS	RPMI 5 mM glucose + 10% dialyzed FBS
0.000781 µM	111	106
0.00234 µM	117	118
0.00702 µM	133	117
0.0211 µM	137	133
0.0632 µM	135	139
0.19 µM	135	135
0.569 µM	126	150
1.71 µM	135	141
5.12 µM	155	144
15.4 µM	138	141
46.1 µM	132	132

AUC of viability dose-response curve
Conditions	HPLM + 10% dialyzed FBS	RPMI 5 mM glucose + 10% FBS	RPMI 5 mM glucose + 10% dialyzed FBS
NOMO1 [2]	337	305	341
SEM cells [3]	467	459	450
